US20110257170A1, “4-MORPHOLINO-PYRIDO[3,2-D]PYRIMIDINES” (MERCK SERONO SA, priority 2008, published 2011)

How the values were obtained:
[1] = test system: T1, Human recombinant GST-PI3K; test: PI3K lipid phosphorylation scintillation proximity assay (neomycin-coated SPA beads); type: biochemical; details: 120 min at room temperature, isoform not stated
T1 construct: fused on or other part: GST tag
Text: The efficacy of compounds of the invention in inhibiting the PI3K induced-lipid phosphorylation may be tested in the following binding assay. The assay combines the scintillation proximity assay technology (SPA, Amersham) with the capacity of neomycin (a polycationic antibiotic) to bind phospholipids with high affinity and specificity. The Scintillation Proximity Assay is based on the properties of weakly emitting isotopes (such as ^3H, ^125I, ^33P). Coating SPA beads with neomycin allows the detection of phosphorylated lipid substrates after incubation with recombinant PI3K and radioactive ATP in the same well, by capturing the radioactive phospholipids to the SPA beads through their specific binding to neomycin. […] After precipitation of the neomycin-coated PVT SPA beads for 5 minutes at 1500×g, radioactive Ptdlns(3)P is quantified by scintillation counting in a Wallac MicroBeta™ plate counter. […]

Structure (SMILES)	melting point	IC50 [1] [µM]
COC(=O)c1cc(Cl)c2nc(Cl)nc(N3CCOCC3)c2n1 [Example E-1, Methyl 2,8-dichloro-4-morpholin-4-yl-pyrido[3,2-d]pyrimidine-6-carboxylate]	212 to 213 °C (dec.)	–
Cc1ccc2nc(Cl)nc(N3CCOCC3)c2n1 [Example E-34, 2-Chloro-6-methyl-4-morpholin-4-ylpyrido[3,2-d]pyrimidine]	–	8.61
